Patent US20150105252A1, “SUBSTITUTED PYRAZOLES AS HERBICIDES” (E I DU PONT DE NEMOURS AND COMPANY, priority 2013, published 2015)

Experiments:
lambsquarters [1] = test: Test D postemergence; assay type: in vivo, Chenopodium album; settings: scale 0 to 100
In short: (§1)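 Formulation was a non-phytotoxic solvent mixture plus surfactant, applied either to soil at planting (silt loam, preemergence) or to foliage of 2–18 cm plants (postemergence). Visual evaluation versus controls followed at 14–21 days, scored 0–100.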

ryegrass, Italian = test: Test D postemergence; assay type: in vivo, Lolium multiflorum; settings: scale 0 to 100
In short: as §1

barley, spring = test: Test D preemergence; assay type: in vivo, Hordeum vulgare; settings: Preemergence, scale 0 to 100
In short: as §1

barley, winter = test: Test D preemergence; assay type: in vivo, Hordeum vulgare; settings: Preemergence, scale 0 to 100
In short: as §1

oat, wild [2] = test: Test D postemergence; assay type: in vivo, Avena fatua; settings: scale 0 to 100
In short: as §1

buckwheat, wild = test: Test D postemergence; assay type: in vivo, Polygonum convolvulus; settings: scale 0 to 100
In short: as §1

lambsquarters [3] = test: Test D preemergence; assay type: in vivo, Chenopodium album; settings: Preemergence, scale 0 to 100
In short: as §1

mustard, wild [4] = test: Test D postemergence; assay type: in vivo, Sinapis arvensis; settings: scale 0 to 100
In short: as §1

mustard, wild [5] = test: Test D preemergence; assay type: in vivo, Sinapis arvensis; settings: Preemergence, scale 0 to 100
In short: as §1

chamomile = test: Test D preemergence; assay type: in vivo, Matricaria inodora; settings: Preemergence, scale 0 to 100
In short: as §1

bluegrass = test: Test D preemergence; assay type: in vivo, Poa annua; settings: Preemergence, scale 0 to 100
In short: as §1

kochia [6] = test: Test D preemergence; assay type: in vivo, Kochia scoparia; settings: Preemergence, scale 0 to 100
In short: as §1

oat, wild [7] = test: Test D preemergence; assay type: in vivo, Avena fatua; settings: Preemergence, scale 0 to 100
In short: as §1

galium = test: Test D postemergence; assay type: in vivo, Galium aparine; settings: scale 0 to 100
In short: as §1

bromegrass, downy = test: Test D postemergence; assay type: in vivo, Bromus tectorum; settings: scale 0 to 100
In short: as §1

field violet = test: Test D preemergence; assay type: in vivo, Viola arvensis; settings: Preemergence, scale 0 to 100
In short: as §1

kochia [8] = test: Test D postemergence; assay type: in vivo, Kochia scoparia; settings: scale 0 to 100
In short: as §1

canarygrass = test: Test D postemergence; assay type: in vivo, Phalaris minor; settings: scale 0 to 100
In short: as §1

foxtail, green = test: Test D postemergence; assay type: in vivo, Setaria viridis; settings: scale 0 to 100
In short: as §1

pigweed = test: Test D preemergence; assay type: in vivo, Amaranthus retroflexus; settings: Preemergence, scale 0 to 100
In short: as §1

CCCc1cc(C(=O)NC(C)C)nn1Cc1cc(C(F)(F)F)nn1C [Compound 201]
Lambsquarters plant response rating (lambsquarters [1]; Postemergence, 31 g ai/ha): 75 | Lambsquarters plant response rating (lambsquarters [1]; Postemergence, 125 g ai/ha): 90 | Lambsquarters plant response rating (lambsquarters [1]; Postemergence, 250 g ai/ha): 90 | Lambsquarters plant response rating (lambsquarters [1]; postemergence, 62 g ai/ha): 75 | Ryegrass, Italian plant response rating (ryegrass, Italian; Postemergence, 31 g ai/ha): 15 | Ryegrass, Italian plant response rating (ryegrass, Italian; Postemergence, 125 g ai/ha): 20 | Ryegrass, Italian plant response rating (ryegrass, Italian; Postemergence, 250 g ai/ha): 50 | Ryegrass, Italian plant response rating (ryegrass, Italian; postemergence, 62 g ai/ha): 15 | Plant response rating, Barley, Spring (barley, spring; 31 g ai/ha): 0 | Plant response rating, Barley, Spring (barley, spring; 62 g ai/ha): 20 | Plant response rating, Barley, Spring (barley, spring; 125 g ai/ha): 65 | Plant response rating, Barley, Spring (barley, spring; 250 g ai/ha): 75 | Plant response rating, Barley, Winter (barley, winter; 31 g ai/ha): 25 | Plant response rating, Barley, Winter (barley, winter; 62 g ai/ha): 35 | Plant response rating, Barley, Winter (barley, winter; 125 g ai/ha): 45 | Plant response rating, Barley, Winter (barley, winter; 250 g ai/ha): 100 | Oat, Wild plant response rating (oat, wild [2]; Postemergence, 31 g ai/ha): 25 | Oat, Wild plant response rating (oat, wild [2]; Postemergence, 125 g ai/ha): 50 | Oat, Wild plant response rating (oat, wild [2]; Postemergence, 250 g ai/ha): 70 | Oat, Wild plant response rating (oat, wild [2]; postemergence, 62 g ai/ha): 25 | Buckwheat, Wild plant response rating (buckwheat, wild; Postemergence, 31 g ai/ha): 50 | Buckwheat, Wild plant response rating (buckwheat, wild; Postemergence, 125 g ai/ha): 65 | Buckwheat, Wild plant response rating (buckwheat, wild; Postemergence, 250 g ai/ha): 70 | Buckwheat, Wild plant response rating (buckwheat, wild; postemergence, 62 g ai/ha): 50 | Plant response rating, Lambsquarters (lambsquarters [3]; 62 g ai/ha): 90 | Plant response rating, Lambsquarters (lambsquarters [3]; 125 g ai/ha): 100 | Plant response rating, Lambsquarters (lambsquarters [3]; 250 g ai/ha): 100 | Mustard, Wild plant response rating (mustard, wild [4]; Postemergence, 31 g ai/ha): 75 | Mustard, Wild plant response rating (mustard, wild [4]; Postemergence, 125 g ai/ha): 85 | Mustard, Wild plant response rating (mustard, wild [4]; Postemergence, 250 g ai/ha): 90 | Mustard, Wild plant response rating (mustard, wild [4]; postemergence, 62 g ai/ha): 75 | Plant response rating, Mustard, Wild (mustard, wild [5]; 62 g ai/ha): 100 | Plant response rating, Mustard, Wild (mustard, wild [5]; 125 g ai/ha): 100 | Plant response rating, Mustard, Wild (mustard, wild [5]; 250 g ai/ha): 100 | Plant response rating, Chamomile (chamomile; 31 g ai/ha): 50 | Plant response rating, Chamomile (chamomile; 62 g ai/ha): 100 | Plant response rating, Chamomile (chamomile; 125 g ai/ha): 100 | Plant response rating, Chamomile (chamomile; 250 g ai/ha): 100 | Plant response rating, Bluegrass (bluegrass; 31 g ai/ha): 20 | Plant response rating, Bluegrass (bluegrass; 62 g ai/ha): 50 | Plant response rating, Bluegrass (bluegrass; 125 g ai/ha): 80 | Plant response rating, Bluegrass (bluegrass; 250 g ai/ha): 95 | Plant response rating, Kochia (kochia [6]; 62 g ai/ha): 100 | Plant response rating, Kochia (kochia [6]; 125 g ai/ha): 100 | Plant response rating, Kochia (kochia [6]; 250 g ai/ha): 100 | Plant response rating, Oat, Wild (oat, wild [7]; 62 g ai/ha): 60 | Plant response rating, Oat, Wild (oat, wild [7]; 125 g ai/ha): 100 | Plant response rating, Oat, Wild (oat, wild [7]; 250 g ai/ha): 100 | Galium plant response rating (galium; Postemergence, 31 g ai/ha): 70 | Galium plant response rating (galium; Postemergence, 125 g ai/ha): 70 | Galium plant response rating (galium; Postemergence, 250 g ai/ha): 85 | Galium plant response rating (galium; postemergence, 62 g ai/ha): 70 | Bromegrass, Downy plant response rating (bromegrass, downy; Postemergence, 31 g ai/ha): 30 | Bromegrass, Downy plant response rating (bromegrass, downy; Postemergence, 125 g ai/ha): 35 | Bromegrass, Downy plant response rating (bromegrass, downy; Postemergence, 250 g ai/ha): 50 | Bromegrass, Downy plant response rating (bromegrass, downy; postemergence, 62 g ai/ha): 30 | Plant response rating, Field Violet (field violet; 62 g ai/ha): 100 | Plant response rating, Field Violet (field violet; 125 g ai/ha): 100 | Plant response rating, Field Violet (field violet; 250 g ai/ha): 100 | Kochia plant response rating (kochia [8]; Postemergence, 31 g ai/ha): 75 | Kochia plant response rating (kochia [8]; Postemergence, 125 g ai/ha): 85 | Kochia plant response rating (kochia [8]; Postemergence, 250 g ai/ha): 85 | Kochia plant response rating (kochia [8]; postemergence, 62 g ai/ha): 75 | Canarygrass plant response rating (canarygrass; Postemergence, 31 g ai/ha): 15 | Canarygrass plant response rating (canarygrass; Postemergence, 125 g ai/ha): 20 | Canarygrass plant response rating (canarygrass; Postemergence, 250 g ai/ha): 60 | Canarygrass plant response rating (canarygrass; postemergence, 62 g ai/ha): 15 | Foxtail, Green plant response rating (foxtail, green; Postemergence, 31 g ai/ha): 30 | Foxtail, Green plant response rating (foxtail, green; Postemergence, 125 g ai/ha): 40 | Foxtail, Green plant response rating (foxtail, green; Postemergence, 250 g ai/ha): 55 | Foxtail, Green plant response rating (foxtail, green; postemergence, 62 g ai/ha): 30 | Plant response rating, Pigweed (pigweed; 62 g ai/ha): 80 | Plant response rating, Pigweed (pigweed; 125 g ai/ha): 100 | Plant response rating, Pigweed (pigweed; 250 g ai/ha): 100
